Patent US20240252454A1, “COMPOSITION COMPRISING AN INHIBITOR OF MITOCHONDRIAL TRANSCRIPTION” (LEAD DISCOVERY CENTER GMBH, priority 2021, published 2024)

How the values were obtained:
Type in all cases: cell-based
A2780 [1] = experiment: SRB assay, IMT combined with inhibitor; conditions: A2780 (ovary); concentration series of the labelled inhibitor + fixed concentration of IMT (3S)-1-[(2R)-2-[4-(2-chloro-4-fluoro-phenyl)-2-oxo-chromen-7-yl]oxypropanoyl]piperidine-3-carboxylic acid (Table 3: 40 nM, 120 h); negative=synergistic, positive=antagonistic
Description: In two studies, the ovarian cell line A2780 was tested for 72 hours with the IMT N,N-dimethyl-2-[4-(o-tolyl)-2-oxo-chromen-7-yl]oxy-propanamide (30 μM-15 nM) and the MEK inhibitor Selumetinib (30 μM-10 nM), or with the IMT 1-[2-[4-(2-chlorophenyl)-2-oxo-chromen-7-yl]oxypropanoyl]piperidine-3-sulfonamide (30 μM-15 nM) and the MEK inhibitor PD318088 (30 μM-10 nM).
(§1) Solforhodamine B assay is carried out as described in Voigt W. (2005) Sulforhodamine B Assay and Chemosensitivity. (Methods in Molecular Medicine™, vol 110. Humana Press. https://doi.org/10.1385/1-59259-869-2:039).
(§2) The determination of changes in cellular biomass was based on the Solforhodamine B assay format, carried out as described in Voigt W. (2005) Sulforhodamine B Assay and Chemosensitivity. (Methods in Molecular Medicine™, vol 110. Humana Press. https://doi.org/10.1385/1-59259-869-2:039).
(§3) All in vitro cell culture experiments were carried out under near physiological glucose concentrations (5 mM) in at least two independent replicates.
First, 30 different cell lines from 14 different tissue types were tested in the SRB assay format. The cells were examined individually for changes in growth over a period of 120 hours with dilution series of both inhibitors. Untreated cells were used as a negative control group. Subsequently, a dilution series of the respective MAPK signalling pathway SOCs was treated in combination with a fixed concentration of 40 nM (3S)-1-[(2R)-2-[4-(2-chloro-4-fluoro-phenyl)-2-oxo-chromen-7-yl]oxypropanoyl]piperidine-3-carboxylic acid.

A204 = experiment: SRB assay, IMT combined with inhibitor; conditions: A204 (muscle); concentration series of the labelled inhibitor + fixed concentration of IMT (3S)-1-[(2R)-2-[4-(2-chloro-4-fluoro-phenyl)-2-oxo-chromen-7-yl]oxypropanoyl]piperidine-3-carboxylic acid; negative=synergistic, positive=antagonistic
Description: as §1, §2, §3
(§4) To establish the method described, combinations of (3S)-1-[(2R)-2-[4-(2-chloro-4-fluoro-phenyl)-2-oxo-chromen-7-yl]oxypropanoyl]piperidine-3-carboxylic acid and various PARPi were tested with regard to their effect on the cell growth of 33 tumour cell lines from different tissues, in the SRB and CTG assay format. The assay methods and protocols in cell culture and measurement followed the procedure as described in Example 1). […] This initial study was followed by validation experiments in a matrix format and in the CTG assay, as described for Example 1) (Table 6.)

ASPC1 = experiment: SRB assay, IMT combined with inhibitor; conditions: ASPC1 (pancreas); concentration series of the labelled inhibitor + fixed concentration of IMT (3S)-1-[(2R)-2-[4-(2-chloro-4-fluoro-phenyl)-2-oxo-chromen-7-yl]oxypropanoyl]piperidine-3-carboxylic acid; negative=synergistic, positive=antagonistic
Description: as §1, §2, §3, §4

MCF7 = experiment: SRB assay, IMT combined with inhibitor; conditions: MCF7 (breast); concentration series of the labelled inhibitor + fixed concentration of IMT (3S)-1-[(2R)-2-[4-(2-chloro-4-fluoro-phenyl)-2-oxo-chromen-7-yl]oxypropanoyl]piperidine-3-carboxylic acid; negative=synergistic, positive=antagonistic
Description: as §1, §2, §3, §4

MDAMB468 = experiment: SRB assay, IMT combined with inhibitor; conditions: MDAMB468 (breast); concentration series of the labelled inhibitor + fixed concentration of IMT (3S)-1-[(2R)-2-[4-(2-chloro-4-fluoro-phenyl)-2-oxo-chromen-7-yl]oxypropanoyl]piperidine-3-carboxylic acid; negative=synergistic, positive=antagonistic
Description: as §1, §2, §3, §4

[2] = test system: 33 tumour cell lines from different tissues; experiment: SRB assay, panel of tumour cell lines; conditions: fixed concentration of IMT (3S)-1-[(2R)-2-[4-(2-chloro-4-fluoro-phenyl)-2-oxo-chromen-7-yl]oxypropanoyl]piperidine-3-carboxylic acid against concentration series of the labelled inhibitor
Description: as §1, §2, §3
as §4, with “6.) […]” for “6.)”

A2780 [3] = experiment: CellTiter-GLO (CTG) assay, combinatorial matrix

Row | Structure (SMILES) | difference between the calculated combinatorial index (BLISS) and the observed combinatorial effect (A2780 [1]) | difference between the calculated combinatorial index (BLISS) and the observed combinatorial effect (A204) | difference between the calculated combinatorial index (BLISS) and the observed combinatorial effect (ASPC1) | difference between the calculated combinatorial index (BLISS) and the observed combinatorial effect (MCF7) | difference between the calculated combinatorial index (BLISS) and the observed combinatorial effect (MDAMB468) | further results
1 | CC(=O)Nc1cccc(-n2c(=O)n(C3CC3)c(=O)c3c(Nc4ccc(I)cc4F)n(C)c(=O)c(C)c32)c1 [Trametinib] | 0.0305 |  |  |  |  | 
2 | O=C(c1ccc(F)c(F)c1Nc1ccc(I)cc1F)N1CC(O)([C@@H]2CCCCN2)C1 [Cobimetinib] | −0.0105 |  |  |  |  | 
3 | O=C(NOC[C@H](O)CO)c1ccc(F)c(F)c1Nc1ccc(I)cc1F [PD 0325901, (R)—N-(2,3-dihydroxypropoxy)-3,4-difluoro-2-((2-fluoro-4-iodophenyl)amino)benzamide] | −0.0318 |  |  |  |  | 
4 | Cn1cnc2c(F)c(Nc3ccc(Br)cc3Cl)c(C(=O)NOCCO)cc21 [Selumetinib] | −0.0046 |  |  |  |  | 
5 | CC(C)(C)c1nc(-c2cccc(NS(=O)(=O)c3c(F)cccc3F)c2F)c(-c2ccnc(N)n2)s1 [Dabrafenib] | 0.0281 |  |  |  |  | 
6 | Cc1cc(C(=O)NOCCO)c(Nc2ccc(I)cc2F)n(C)c1=O [AZD8330, 2-((2-Fluoro-4-iodophenyl)amino)-N-(2-hydroxyethoxy)-1,5-dimethyl-6-oxo-1,6-dihydropyridine-3-carboxamide] | 0.0118 |  |  |  |  | 
7 | CS(=O)(=O)N1CCN(Cc2cc3nc(-c4cccc5[nH]ncc45)nc(N4CCOCC4)c3s2)CC1 [GDC-0941, 2-(1H-Indazol-4-yl)-6-[[4-(methylsulfonyl)-1-piperazinyl]methyl]-4-(4-morpholinyl)thieno[3,2-d]pyrimidine] | 0.0077 | 0.3066 | 0.1003 | 0.0454 | −0.0509 | 
8 | C[C@H](Nc1ncnc2nc[nH]c12)c1cc2cccc(Cl)c2c(=O)n1-c1ccccc1 [Duvelisib] | 0.0081 | −0.0217 | 0.0753 | 0.0256 | −0.0285 | 
9 | COc1c(OCCCN2CCOCC2)ccc2c1N=C(NC(=O)c1cnc(N)nc1)N1CCN=C21 [BAY 80-6946, 2-Amino-N-{7-methoxy-8-[3-(4-morpholinyl)propoxy]-2,3-dihydroimidazo[1,2-c]quinazolin-5-yl}-5-pyrimidinecarboxamide] | 0.0466 | −0.0098 | 0.0488 | 0.0155 | 0.0183 | combinatorial effect in the majority of the cell lines and tissue types examined [2]: clear synergistic effect
10 | O=C(c1cc(Cc2n[nH]c(=O)c3ccccc23)ccc1F)N1CCN(C(=O)C2CC2)CC1 [Olaparib] | −0.0656 | −0.0329 | −0.0583 | 0.0602 | −0.0262 | combinatorial effect in the majority of the cell lines and tissue types examined [2]: clear synergistic effect; combination of IMT and PARPi compared to treatment with just the PARPi alone (A2780 [3]; A2780, CTG matrix, 30 μM to 10 nM IMT (3S)-1-[(2R)-2-[4-(2-chloro-4-fluoro-phenyl)-2-oxo-chromen-7-yl]oxypropanoyl]piperidine-3-carboxylic acid + 30 μM to 40 nM of the labelled PARPi): advantage of the combination; activity at 0.04 µM (A2780 [3]; Homo sapiens, A2780, 72 hours, Olaparib 0.04 μM, IMT (3S)-1-[(2R)-2-[4-(2-chloro-4-fluoro-phenyl)-2-oxo-chromen-7-yl]oxypropanoyl]piperidine-3-carboxylic acid at the μM of c0, untreated control =100%, read-out: Measured residual activity (cellular ATP content)): 99%; activity at 0.1 µM (A2780 [3]; Homo sapiens, A2780, 72 hours, Olaparib 0.1 μM, IMT (3S)-1-[(2R)-2-[4-(2-chloro-4-fluoro-phenyl)-2-oxo-chromen-7-yl]oxypropanoyl]piperidine-3-carboxylic acid at the μM of c0, untreated control =100%, read-out: Measured residual activity (cellular ATP content)): 85%; activity at 0.4 µM (A2780 [3]; Homo sapiens, A2780, 72 hours, Olaparib 0.4 μM, IMT (3S)-1-[(2R)-2-[4-(2-chloro-4-fluoro-phenyl)-2-oxo-chromen-7-yl]oxypropanoyl]piperidine-3-carboxylic acid at the μM of c0, untreated control =100%, read-out: Measured residual activity (cellular ATP content)): 46%; activity at 1.1 µM (A2780 [3]; Homo sapiens, A2780, 72 hours, Olaparib 1.1 μM, IMT (3S)-1-[(2R)-2-[4-(2-chloro-4-fluoro-phenyl)-2-oxo-chromen-7-yl]oxypropanoyl]piperidine-3-carboxylic acid at the μM of c0, untreated control =100%, read-out: Measured residual activity (cellular ATP content)): 27%; activity at […] (A2780 [3]; Homo sapiens, A2780, 72 hours, Olaparib 3.3 μM, IMT (3S)-1-[(2R)-2-[4-(2-chloro-4-fluoro-phenyl)-2-oxo-chromen-7-yl]oxypropanoyl]piperidine-3-carboxylic acid at the μM of c0, untreated control =100%, read-out: Measured residual activity (cellular ATP content)): 14%; activity at 10 µM (A2780 [3]; Homo sapiens, A2780, 72 hours, Olaparib 10 μM, IMT (3S)-1-[(2R)-2-[4-(2-chloro-4-fluoro-phenyl)-2-oxo-chromen-7-yl]oxypropanoyl]piperidine-3-carboxylic acid at the μM of c0, untreated control =100%, read-out: Measured residual activity (cellular ATP content)): 1%; activity at 30 µM (A2780 [3]; Homo sapiens, A2780, 72 hours, Olaparib 30 μM, IMT (3S)-1-[(2R)-2-[4-(2-chloro-4-fluoro-phenyl)-2-oxo-chromen-7-yl]oxypropanoyl]piperidine-3-carboxylic acid at the μM of c0, untreated control =100%, read-out: Measured residual activity (cellular ATP content)): 0%
11 | CC(C)Nc1cc(-c2c[nH]c(C(=O)N[C@H](CO)c3cccc(Cl)c3)c2)c(Cl)cn1 [Ulixertinib] | −0.0025 |  |  |  |  | 
